The source of these data is patent US20230126533A1, “Method of treating an inflammatory disorder” (The University of Miami, priority 2020, published 2023).

Starred links: 1 amine or outer side, 2 acyl side, 3 side chain; linkers in the order of their positions; H or OH if unused. Non-standard residues stand in square brackets, D forms with d. *: point of attachment. Tyr(Me) = O-methyl-tyrosine, COc1ccc(C[C@H](N[*:1])C(=O)[*:2])cc1; Phenylacetyl(2,3,4,5,6-F5) = O=C(Cc1c(F)c(F)c(F)c(F)c1F)*; Phe(F5) = N[C@@H](Cc1c(F)c(F)c(F)c(F)c1F)C(=O)O; hArg = N=C(N)NCCCC[C@H](N)C(=O)O; 12Ado = NCCCCCCCCCCCC(=O)O; Nle = CCCC[C@H](N)C(=O)O; Abu = CC[C@H](N)C(=O)O

Experiment [1] deals with C57B1/6 mice challenged with Mycobacterium abscessus (MAB) microparticles. Put plainly: Lung inflammation score in mouse model of pulmonary sarcoidosis. It counts as in vivo. The settings on record: AVR 5 microgram per mouse daily subcutaneous, after 3 weeks, vs saline granuloma group. The protocol:
(§1) A mouse model of pulmonary sarcoidosis was previously established in C57B1/6 mice. Microparticles (Mycobacterium abscessus) developed in-house were administered intratracheally. The tongue was pulled out with a small spatula and microparticle was inserted into the trachea using a 20 G angio-catheter tube and advanced to main bronchus until reach to resistant. After tube placement, microparticles were administered (first dose of 50 μL=5×10^8, followed by up to 3 doses of 20 μL=2×10^8 of CFU of M. abscessus). The control group received only 20 μL PBS intratracheally.
The lung tissue was fixed in formalin and cut for histology. Developed noncaseating granuloma in the mouse lung was visualized with H&E staining and immunohistochemistry staining for CD68 macrophage marker, CD4 marker, and PD-L1.
(§2) One sarcoidosis group received AVR (“AVR group”), administered via subcutaneous injection, 5 microgram per mouse daily. Another sarcoidosis group received steroid treatment ([…], the current first line treatment for sarcoidosis) (“solu-medrol group”), and the final group received only saline (“granuloma group”). After 3 weeks mice were sacrificed and graded the inflammation in the lung samples.
Two mg of AVR-352 was added to 0.5 ml DMSO. After dissolving, 1,2-propanediol 10% was added to reach a volume of 40 ml. The fluid was sterilized by passing through a 0.22-micron filter. […]

The next experiment concerns iNOS. The experiment can be described thus: iNOS expression in lungs of MAB microparticle challenged mice. It counts as in vivo. Particulars: mouse models of Example 3; vs MAB microparticle alone. The protocol: as §1, §2
Inducible Nitric oxide synthase (iNOS) plays important role in immune response to microbes. NO can control the production of Th1 immune responses by modulating IL-12 expression. NO plays an important inhibitory role in Th17 differentiation. […] To test whether AVR reduces iNOS expression in an inflammation model, lungs from mouse models described in Example 3 were evaluated for iNOS.

A further experiment relates to CD209f gene. Put plainly: RNASeq gene expression in lungs of MAB microparticle challenged mice. The format is in vivo, mouse. The settings on record: challenged mice with AVR treatment vs challenged mice. The method, then: as §1, §2
Whole gene expression was analyzed using RNASeq. Harvested lung from control, challenged, and treatment groups generated as described in Example 3 were used. RNA was isolated and RNASeq was performed at Genomic center at University of Miami. […] A heatmap was generated for the differentiating genes between challenged mice with MAB microparticles versus challenged mice with AVR treatment.

In experiment [2] the test system is PBMC of subjects with confirmed pulmonary sarcoidosis. The experiment can be described thus: Apoptosis-related proteins in ex vivo sarcoidosis granuloma model (multiplex Elisa). The format is cell-based, human. Particulars: PBMC challenged with MAB microparticles 10:1, 48 h; for active caspase 3 concentration: 1 microM AVR. An excerpt:
GHRHR antagonists induce apoptosis in cancer cells. The effects of GHRHR antagonist in immune cells still remains unclear. The ability of AVR to induce apoptosis in an ex vivo sarcoidosis model using PBMC of five subjects with confirmed pulmonary sarcoidosis was characterized.
PBMC samples were grouped as “control” (not challenged), “particles” (granuloma), “particles+AVR” (granuloma treated with 1 microM AVR), and “particles+Solu” (granuloma treated with methyl prednisolone as positive control). The “particle” groups were challenged with equal to 10:1 treatment with MAB microparticles. Media from all groups were removed 48 h after of treatments. Survivn, MCL-1/Bak Dimer, BClxL/Bak dimer, and active caspase 3 concentrations were measured using multiplex Elisa instrument and compared using t-test.

The subject of another experiment is IL2, OAS1 and ISG15. The experiment can be described thus: Cytokine expression (Western blot) in lungs of MAB microparticle challenged mice. It counts as in vivo. Particulars: mouse models of Example 3; vs MAB microparticle challenge. The protocol:
as §1, §2
The effects of AVR on IL2 (T helper 1 cytokine) and Type I interferon cytokines (OAS1 and ISG15) were measured and compared in the lungs of mice models prepared as set forth in Example 3.

Turning to “5FPhAC-Ada-Tyr-DArg-Asp-Ala-Ile-5FPhe-Thr-Ala-Har-Tyr(Me)-Arg-Lys-Val-Leu-Abu-Gln-Leu-Ser-Ala-Arg-Lys-Leu-Leu-Gln-Asp-Ile-Nle-DArg-Har-Ada-NH2 ({Phenylacetyl(2,3,4,5,6-F5)-12Ado}-Y[dR]DAI[Phe(F5)]TA[hArg][Tyr(Me)]RKVL[Abu]QLSARKLLQDI[Nle][dR][hArg]-{12Ado-NH2}; SMILES CCCC[C@H](NC(=O)[C@@H](NC(=O)[C@H](CC(=O)O)NC(=O)[C@H](CCC(N)=O)NC(=O)[C@H](CC(C)C)NC(=O)[C@H](CC(C)C)NC(=O)[C@H](CCCCN)NC(=O)[C@H](CCCNC(=N)N)NC(=O)[C@H](C)NC(=O)[C@H](CO)NC(=O)[C@H](CC(C)C)NC(=O)[C@H](CCC(N)=O)NC(=O)[C@H](CC)NC(=O)[C@H](CC(C)C)NC(=O)[C@@H](NC(=O)[C@H](CCCCN)NC(=O)[C@H](CCCNC(=N)N)NC(=O)[C@H](Cc1ccc(OC)cc1)NC(=O)[C@H](CCCCNC(=N)N)NC(=O)[C@H](C)NC(=O)[C@@H](NC(=O)[C@H](Cc1c(F)c(F)c(F)c(F)c1F)NC(=O)[C@@H](NC(=O)[C@H](C)NC(=O)[C@H](CC(=O)O)NC(=O)[C@@H](CCCNC(=N)N)NC(=O)[C@H](Cc1ccc(O)cc1)NC(=O)CCCCCCCCCCCNC(=O)Cc1c(F)c(F)c(F)c(F)c1F)[C@@H](C)CC)[C@@H](C)O)C(C)C)[C@@H](C)CC)C(=O)N[C@H](CCCNC(=N)N)C(=O)N[C@@H](CCCCNC(=N)N)C(=O)NCCCCCCCCCCCC(N)=O) [AVR]”, the “lung inflammation score (percentage of lung inflammation)” value in experiment [1] is listed as “significantly lower inflammation scores”. Moreover, the “iNOS expression in the challenged lung” value in the experiment with iNOS was “significantly reduced MAB-induced increased iNOS expression”. The “CD209f gene expression in lung” value in the experiment on CD209f gene is reported as “significantly downregulated”. The “active caspase 3 concentration” value in experiment [2] is “significantly increased”. Also, in the experiment on IL2, OAS1 and ISG15, the “IL2 expression in lung” value is on record as “reduced significantly”, the “ISG15 expression in lung” value was “reduced significantly” and the “OAS1 expression in lung” value is reported as “reduced significantly”.
For the compound `C[C@H]1C[C@@H]2[C@H]([C@@H](O)C[C@@]3(C)[C@H]2CC[C@]3(O)C(=O)COC(=O)CCC(=O)[O-])[C@@]2(C)C=CC(=O)C=C12.[Na+]` [Solu-Medrol, reference compound], in experiment [1], the “lung inflammation score (percentage of lung inflammation)” value is on record as “less effect than AVR”. Further, the “iNOS expression in the challenged lung” value in the experiment with iNOS was “reduced MAB-induced increased iNOS expression”. In experiment [2], the “active caspase 3 concentration” value was “significantly increased” and the MCL-1/Bak dimer concentration result is “significantly reduced”.
